Laboratory results from a melting point compilation (Tetko et al.; mined from patent text by program, amines drawn as free bases though some values may be those of a salt).

Q: With `Cc1cc(-n2ccc(OCc3ccccc3)cc2=O)sc1C(=O)NCc1cccc(F)c1` as the compound, how does the melting point read?
A: 140 to 141 °C

Q: Which melting point does the source give for `Cc1cccc(Cl)c1NC(=O)Nc1cc(N[C@H]2CC[C@H](O)CC2)ncn1` here?
A: 149 to 152 °C

Q: With `COc1cccc(Oc2ccc3nc(C(C)=O)c(O)cc3c2)c1` as the compound, how does the melting point read?
A: 102 to 104 °C

Q: With `CC(C(=O)O)c1ccc(-c2ccc(OCc3nc4ccccc4s3)cc2)cc1` (centres undefined) as the compound, how does the melting point read?
A: 199 to 200 °C

Q: For `CC1Nc2ccccc2C(=O)N1CCN1CCC(c2noc3cc(F)ccc23)CC1` (centres undefined), which melting point is on record?
A: 164 to 165 °C

Q: For `c1ccc2cc(OCc3ccc4ccccc4n3)ccc2c1`, which melting point is on record?
A: 100 to 102 °C

Q: Which melting point does the source give for `Cc1nc2c(C=O)cccn2c1Br` here?
A: 137 to 139 °C

Q: For `COc1cc2nc(N3CCN(C(=O)C4CC=CCC4)CC3)nc(N)c2cc1OC` (centres undefined), which melting point is on record?
A: 211 to 213 °C

Q: For `CC1(C)CCCC(C)(C)N1c1nc(NCCO)nc(NCCO)n1`, which melting point is on record?
A: 147 to 148 °C

Q: For `CC1(OC(=O)C#CC2C(C(=O)OC(C#N)c3cccc(Oc4ccccc4)c3)C2(C)C)CCC1` (centres undefined), which melting point is on record?
A: 76 °C

Q: With `CC(C)Cn1c(=O)n(C)c(=O)c2c(SCC(C)O)c(Cc3cccc4ccccc34)sc21` (centres undefined) as the compound, how does the melting point read?
A: 126 to 128 °C

Q: With `COc1ccnc(CCc2nc3cc(-c4ccc(S(=O)(=O)Nc5ccccc5OC)cc4)cnc3[nH]2)c1` as the compound, how does the melting point read?
A: 215 to 216 °C

Q: With `Cc1nnc(-c2ccc3scc(-c4ccc(S(C)=O)cc4)c3c2)o1` (centres undefined) as the compound, how does the melting point read?
A: 166 to 167 °C

Q: With `O=C1NC(=O)C(=Cc2ccc3c(c2)CCC(Cc2ccc(OCc4ccccc4)cc2)O3)S1` (centres undefined) as the compound, how does the melting point read?
A: 245 to 250 °C

Q: With `COC(=S)c1c[nH]c(-c2ccccc2)c1` as the compound, how does the melting point read?
A: 107 to 109 °C

Q: Which melting point does the source give for `C=C(C)[C@@H]1CC(=O)[C@H](C)[C@H]1c1nc2c([nH]1)c(=O)n(CCC)c(=O)n2CCC` here?
A: 136 to 137 °C

Q: For `CC1Cc2ccc([Si](C)(C)C)c(S(=O)(=O)NC(C)(C)C)c2S1` (centres undefined), which melting point is on record?
A: 119 to 124 °C

Q: For `C[C@@H](Nc1c(Nc2ccc(C#N)c(Cl)c2)c(=O)c1=O)C(C)(C)C`, which melting point is on record?
A: > 300 °C

Q: With `COc1ccc(-c2cncn2-c2ccc(S(C)(=O)=O)cc2)cc1` as the compound, how does the melting point read?
A: 185 to 187 °C

Q: With `CCc1ccc(Oc2cc3c(cc2Cl)C=C(C(=O)O)C(C(F)(F)F)O3)cc1` (centres undefined) as the compound, how does the melting point read?
A: 196 °C

Q: With `CCOC(=O)c1ccc(N)cc1O` as the compound, how does the melting point read?
A: 113 to 115 °C

Q: With `CCOC(=O)C1=C(C)NC(N)=C(C(=O)OCC)C1c1cccc([N+](=O)[O-])c1` (centres undefined) as the compound, how does the melting point read?
A: 169 °C

Q: Which melting point does the source give for `COc1cccc(C(=O)NCCCCCCCNC(=O)c2cccc(OC)c2)c1` here?
A: 109 to 112 °C

Q: For `COc1ccccc1C=C1CS(=O)(=O)CC(=Cc2ccccc2OC)C1=O`, which melting point is on record?
A: 198 to 200 °C

Q: For `CNCC(O)c1ccc(CO)cc1` (centres undefined), which melting point is on record?
A: 80 to 81 °C

Q: Which melting point does the source give for `CC(=O)N1CCC2(CC1)CN=C(c1cc3sc(C)c(N(C)S(=O)(=O)c4cccs4)c3[nH]1)S2` here?
A: 231 °C

Q: With `O=C(O)CCC(Cl)(Cl)Cl` as the compound, how does the melting point read?
A: 54.8 °C

Q: With `CCCCC(=O)NC(C(=O)OCC)=C(N)SCCOC(C)=O` as the compound, how does the melting point read?
A: 84 °C

Q: Which melting point does the source give for `CCOC(=O)C1=C(C)NC(N=CN(C)C)=C(C(=O)OCC)C1c1ccccc1Cl` (centres undefined) here?
A: 140 °C

Q: With `CN1CC[C@@H](c2c(O)cc(O)c3c(=O)cc(-c4ccccc4)oc23)[C@@H]1CO` as the compound, how does the melting point read?
A: 212 to 215 °C

Q: With `OCc1cccc(-c2ccc(-c3cn([C@H]4CN5CCC4CC5)nn3)cc2)c1` as the compound, how does the melting point read?
A: 207 °C

Q: With `COc1ccc2c(c1)N(Cc1ccccc1)C(=O)C1CCCC1=N2` (centres undefined) as the compound, how does the melting point read?
A: 105 to 107 °C

Q: Which melting point does the source give for `CSc1ccc(CNC(=O)c2sc(NC(C)=O)nc2CCc2ccc(NC(=O)OC(C)(C)C)cc2)cc1` here?
A: 182 to 183 °C

Q: For `CN1CCN(C(=O)CCS)C(C(=O)O)C1` (centres undefined), which melting point is on record?
A: 75 to 79 °C

Q: With `Oc1ccc2cc(-c3noc4ccc(O)cc34)ccc2c1` as the compound, how does the melting point read?
A: 250 to 252 °C

Q: Which melting point does the source give for `CC1C(c2ccc(Cl)cc2Cl)CC(=O)N1O` (centres undefined) here?
A: 140 to 144 °C

Q: Which melting point does the source give for `Oc1c(CN2CCCC2)cc(Nc2ccnc3cc(C(F)(F)F)ccc23)cc1CN1CCCC1` here?
A: 56 to 58 °C

Q: Which melting point does the source give for `O=C(NC[C@H]1CC[C@@H](Oc2ccc(F)cc2)CC1)c1ccc(O)cc1` here?
A: 170 °C

Q: Which melting point does the source give for `N#Cc1cc(N)cc([N+](=O)[O-])c1` here?
A: 168 to 170 °C
